Assays:
Raf-1 [1] = test: Relative activity of FIG. 9A-9G compounds; assay type: cell-based; parameters: key: ++++: most active; −: minimal activity; conditions: Table 4
Description: The compounds of FIGS. 9A-9G have been tested for activity with respect to erbB2 (Her2), raf-1 and estrogen receptors.

PI3 kinase = test: Inhibition of PI3 kinase activity; assay type: biochemical; conditions: FIG. 12
estrogen receptor [2] = target: T1, estrogen receptor (Homo sapiens, UniProt P03372); test: Immunoblotting for receptor presence in MCF-7 cells exposed to compound; assay type: cell-based
T1 construct: testing for the presence of the receptor using receptor-specific antibodies in an immunoblotting experiment; endogenous in cells; host or cells: MCF-7
T1 sequence (P03372 whole entry): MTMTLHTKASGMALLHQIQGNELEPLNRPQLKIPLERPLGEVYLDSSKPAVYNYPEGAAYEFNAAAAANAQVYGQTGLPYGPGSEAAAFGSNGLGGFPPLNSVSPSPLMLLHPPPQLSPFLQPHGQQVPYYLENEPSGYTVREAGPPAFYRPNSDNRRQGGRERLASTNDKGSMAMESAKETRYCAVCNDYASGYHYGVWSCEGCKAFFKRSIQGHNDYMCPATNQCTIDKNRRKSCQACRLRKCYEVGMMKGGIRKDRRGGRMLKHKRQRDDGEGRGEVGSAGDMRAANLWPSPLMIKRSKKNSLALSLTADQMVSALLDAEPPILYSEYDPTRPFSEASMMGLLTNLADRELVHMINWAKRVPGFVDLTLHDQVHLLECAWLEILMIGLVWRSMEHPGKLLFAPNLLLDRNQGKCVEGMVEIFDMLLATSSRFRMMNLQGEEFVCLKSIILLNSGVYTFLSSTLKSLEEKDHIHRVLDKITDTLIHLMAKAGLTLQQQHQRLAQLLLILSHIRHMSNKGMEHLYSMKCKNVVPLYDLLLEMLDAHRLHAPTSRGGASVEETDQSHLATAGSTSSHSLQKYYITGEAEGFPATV
Procedure: The effects of these compounds on receptor of various types were evaluated by exposing MCF-7 breast cancer cells, in vitro, to 1 μM levels of the compounds for varying periods of time, and then testing for the presence of the receptor using receptor-specific antibodies in an immunoblotting experiment.

Raf-1 [3] = test: as above; assay type: cell-based; parameters: key: +: the receptor was detected by immunoblotting; −: it was not detectable; ±: a weak or equivocal result
ErbB2 [4] = test: as above; assay type: cell-based; parameters: key: +: the receptor was detected by immunoblotting; −: it was not detectable; ±: a weak or equivocal result
androgen receptor = test: Immunoblotting for receptor presence in LNCaP prostate cancer cells; assay type: cell-based; parameters: key to androgen receptor detected by immunoblotting: +: the receptor was detected by immunoblotting; −: it was not detectable; ±: a weak or equivocal result; conditions: for androgen receptor detected by immunoblotting: Table 3
[5] = system: insulin-like growth factor 1 receptor (IGF1-R); test: Immunoblotting for receptor presence in MCF-7 cells exposed to compound; assay type: cell-based; parameters: key to IGFI-R detected by immunoblotting: +: the receptor was detected by immunoblotting; −: it was not detectable; ±: a weak or equivocal result; conditions: for IGFI-R detected by immunoblotting: Table 2
ErbB2 [6] = test: Immunoblotting for receptor presence in LNCaP prostate cancer cells; assay type: cell-based; parameters: key: +: the receptor was detected by immunoblotting; −: it was not detectable; ±: a weak or equivocal result; conditions: Table 3
ErbB2 [7] = test: Immunoblotting of LN-CAP cells exposed to GM or GM-T (Example 2); assay type: cell-based; conditions: immunoblotting over time, geldanamycin at 0.25 and 1 ug/ml, FIG. 8A
estrogen receptor [8] = target: T1, estrogen receptor; test: Relative activity of FIG. 9A-9G compounds; assay type: cell-based; parameters: key to the marks not given beside the values; conditions: Table 4
[9] = system: estrogen receptors and ErbB2 receptors; test: Selectivity across receptor panel, immunoblotting in MCF-7 cells; assay type: cell-based; conditions: 1 μM
Procedure: The effects of these compounds on receptor of various types were evaluated by exposing MCF-7 breast cancer cells, in vitro, to 1 μM levels of the compounds for varying periods of time, and then testing for the presence of the receptor using receptor-specific antibodies in an immunoblotting experiment. The results are summarized in Table 1, where GM-4-E2 indicates a geldanamycin-estradiol compound with a 4-carbon tether.

[10] = MCF-7 cells, 1 μM, exposure time 0 hours, Table 1
[11] = MCF-7 cells, 1 μM, exposure time 3 hours, Table 1
[12] = MCF-7 cells, 1 μM, exposure time 6 hours, Table 1
[13] = MCF-7 cells, 1 μM, exposure time 12 hours, Table 1
[14] = MCF-7 cells, 1 μM, exposure time 24 hours, Table 1
[15] = Example 5, exposure time 0 hours
[16] = Example 5, exposure time 6 hours
[17] = Example 5, exposure time 12 hours
[18] = Example 5, exposure time 24 hours
[19] = repeat experiment (Example 5), exposure time 0 hours, Table 2
[20] = repeat experiment (Example 5), exposure time 6 hours, Table 2
[21] = repeat experiment (Example 5), exposure time 12 hours, Table 2
[22] = repeat experiment (Example 5), exposure time 24 hours, Table 2

COC1C=CC=C(C)C(=O)NC2=CC(=O)C(NCCCCNCCCCCCC3(O)CCC4C5CCc6cc(O)ccc6C5CCC43C)=C(CC(C)CC(OC)C(O)C(C)C=C(C)C1OC(N)=O)C2=O (stereo not drawn) [FIG. 9F]
relative activity, raf-1 (Raf-1 [1]): −

COC1C=CC=C(C)C(=O)NC2=CC(=O)C(NCCCCCCC3(O)CCC4C5CCc6cc(O)ccc6C5CCC43C)=C(CC(C)CC(OC)C(O)C(C)C=C(C)C1OC(N)=O)C2=O (stereo not drawn) [FIG. 9E]
relative activity, raf-1 (Raf-1 [1]): −

CCCCCCNC=C1C(=O)OC(COC)C2(C)C1=C(O)C(=O)C1=C2C(OC(C)=O)CC2(C)C(=O)CCC12 (stereo not drawn) [Z-analog 1]
inhibition of PI3 kinase activity (PI3 kinase): inactive

COC1C=CC=C(C)C(=O)NC2=CC(=O)C(NCCCCNCCCCCCC3(O)CCC4C5CCc6cc(O)ccc6C5CCC43C)=C(CC(C)CC(OC)C(O)C(C)C=C(C)C1OC(N)=O)C2=O (stereo not drawn) [GM-10-E2]
estrogen receptor detected by immunoblotting (estrogen receptor [2]; [10]): +
estrogen receptor detected by immunoblotting (estrogen receptor [2]; [11]): +
estrogen receptor detected by immunoblotting (estrogen receptor [2]; [12]): +
estrogen receptor detected by immunoblotting (estrogen receptor [2]; [13]): ±
estrogen receptor detected by immunoblotting (estrogen receptor [2]; [14]): +
Raf-1 detected by immunoblotting (Raf-1 [3]; [10]): +
Raf-1 detected by immunoblotting (Raf-1 [3]; [11]): +
Raf-1 detected by immunoblotting (Raf-1 [3]; [12]): +
Raf-1 detected by immunoblotting (Raf-1 [3]; [13]): +
Raf-1 detected by immunoblotting (Raf-1 [3]; [14]): +
ErbB2 detected by immunoblotting (ErbB2 [4]; [10]): +
ErbB2 detected by immunoblotting (ErbB2 [4]; [11]): +
ErbB2 detected by immunoblotting (ErbB2 [4]; [12]): +
ErbB2 detected by immunoblotting (ErbB2 [4]; [13]): +
ErbB2 detected by immunoblotting (ErbB2 [4]; [14]): −

CCCCCCN(C)C=C1C(=O)OC(COC)C2(C)C1=C(O)C(=O)C1=C2C(OC(C)=O)CC2(C)C(=O)CCC12 (stereo not drawn) [E-analog 2]
inhibition of PI3 kinase activity (PI3 kinase): inhibits PI3 kinase activity

COC1C=CC=C(C)C(=O)NC2=CC(=O)C(NCCCCCCN(C)CCCCCCC3(O)CCC4C5CCc6cc(O)ccc6C5CCC43C)=C(CC(C)CC(OC)C(O)C(C)C=C(C)C1OC(N)=O)C2=O (stereo not drawn) [GM-13-E2]
estrogen receptor detected by immunoblotting (estrogen receptor [2]; [10]): +
estrogen receptor detected by immunoblotting (estrogen receptor [2]; [11]): +
estrogen receptor detected by immunoblotting (estrogen receptor [2]; [12]): +
estrogen receptor detected by immunoblotting (estrogen receptor [2]; [13]): ±
estrogen receptor detected by immunoblotting (estrogen receptor [2]; [14]): −
Raf-1 detected by immunoblotting (Raf-1 [3]; [10]): +
Raf-1 detected by immunoblotting (Raf-1 [3]; [11]): +
Raf-1 detected by immunoblotting (Raf-1 [3]; [12]): +
Raf-1 detected by immunoblotting (Raf-1 [3]; [13]): +
Raf-1 detected by immunoblotting (Raf-1 [3]; [14]): +
ErbB2 detected by immunoblotting (ErbB2 [4]; [10]): +
ErbB2 detected by immunoblotting (ErbB2 [4]; [11]): +
ErbB2 detected by immunoblotting (ErbB2 [4]; [12]): +
ErbB2 detected by immunoblotting (ErbB2 [4]; [13]): +
ErbB2 detected by immunoblotting (ErbB2 [4]; [14]): −

COC1C=CC=C(C)C(=O)NC2=CC(=O)C(NCCCCCCN(C)CCCCCCC3(O)CCC4C5CCc6cc(O)ccc6C5CCC43C)=C(CC(C)CC(OC)C(O)C(C)C=C(C)C1OC(N)=O)C2=O (stereo not drawn) [FIG. 9G]
relative activity, raf-1 (Raf-1 [1]): −

COC1=C2C[C@@H](C)C[C@H](OC)[C@H](O)[C@@H](C)/C=C(\C)[C@H](OC(N)=O)[C@@H](OC)/C=C\C=C(/C)C(=O)NC(=CC1=O)C2=O [GM, geldanamycin, reference compound]
androgen receptor detected by immunoblotting (androgen receptor; exposure time 0 hours): +
androgen receptor detected by immunoblotting (androgen receptor; exposure time 3 hours): +
androgen receptor detected by immunoblotting (androgen receptor; exposure time 6 hours): +
androgen receptor detected by immunoblotting (androgen receptor; exposure time 12 hours): +
androgen receptor detected by immunoblotting (androgen receptor; exposure time 24 hours): −
IGFI-R detected by immunoblotting [5, 15]: +
IGFI-R detected by immunoblotting [5, 16]: +
IGFI-R detected by immunoblotting [5, 17]: +
IGFI-R detected by immunoblotting [5, 18]: −
ErbB2 detected by immunoblotting (ErbB2 [6]; exposure time 0 hours): +
ErbB2 detected by immunoblotting (ErbB2 [6]; exposure time 3 hours): +
ErbB2 detected by immunoblotting (ErbB2 [6]; exposure time 6 hours): −
ErbB2 detected by immunoblotting (ErbB2 [6]; exposure time 12 hours): −
ErbB2 detected by immunoblotting (ErbB2 [6]; exposure time 24 hours): −
Raf-1 detected by immunoblotting (Raf-1 [3]; [10]): +
Raf-1 detected by immunoblotting (Raf-1 [3]; [11]): +
Raf-1 detected by immunoblotting (Raf-1 [3]; [12]): +
Raf-1 detected by immunoblotting (Raf-1 [3]; [13]): −
Raf-1 detected by immunoblotting (Raf-1 [3]; [14]): −
Raf-1 detected by immunoblotting (Raf-1 [3]; [19]): +
Raf-1 detected by immunoblotting (Raf-1 [3]; [20]): +
Raf-1 detected by immunoblotting (Raf-1 [3]; [21]): −
Raf-1 detected by immunoblotting (Raf-1 [3]; [22]): −
ErbB2 detected by immunoblotting (ErbB2 [4]; [10]): +
ErbB2 detected by immunoblotting (ErbB2 [4]; [11]): −
ErbB2 detected by immunoblotting (ErbB2 [4]; [12]): −
ErbB2 detected by immunoblotting (ErbB2 [4]; [13]): −
ErbB2 detected by immunoblotting (ErbB2 [4]; [14]): −
ErbB2 detected by immunoblotting (ErbB2 [4]; [19]): +
ErbB2 detected by immunoblotting (ErbB2 [4]; [20]): −
ErbB2 detected by immunoblotting (ErbB2 [4]; [21]): −
ErbB2 detected by immunoblotting (ErbB2 [4]; [22]): −

COC1C=CC=C(C)C(=O)NC2=CC(=O)C(NCCCCCCC#CC3(O)CCC4C5CCC6=CC(=O)CCC6(C)C5CCC43C)=C(CC(C)CC(OC)C(O)C(C)C=C(C)C1OC(N)=O)C2=O (stereo not drawn) [GM-T, 17-testosterone-tethered-17-demethoxy-17-GM]
reduction of levels of ErbB2 (ErbB2 [7]): the least reduction was observed

COC1C=CC=C(C)C(=O)NC2=CC(=O)C(NCC=CCC3CC4C5CCc6cc(O)ccc6C5CCC4(C)C3O)=C(CC(C)CC(OC)C(O)C(C)C=C(C)C1OC(N)=O)C2=O (stereo not drawn) [GM-4-E2]
estrogen receptor detected by immunoblotting (estrogen receptor [2]; [10]): +
estrogen receptor detected by immunoblotting (estrogen receptor [2]; [11]): ±
estrogen receptor detected by immunoblotting (estrogen receptor [2]; [12]): −
estrogen receptor detected by immunoblotting (estrogen receptor [2]; [13]): −
estrogen receptor detected by immunoblotting (estrogen receptor [2]; [14]): −
estrogen receptor detected by immunoblotting (estrogen receptor [2]; [19]): +
estrogen receptor detected by immunoblotting (estrogen receptor [2]; [20]): −
estrogen receptor detected by immunoblotting (estrogen receptor [2]; [21]): −
estrogen receptor detected by immunoblotting (estrogen receptor [2]; [22]): −
androgen receptor detected by immunoblotting (androgen receptor; exposure time 0 hours): +
androgen receptor detected by immunoblotting (androgen receptor; exposure time 3 hours): +
androgen receptor detected by immunoblotting (androgen receptor; exposure time 6 hours): +
androgen receptor detected by immunoblotting (androgen receptor; exposure time 12 hours): +
androgen receptor detected by immunoblotting (androgen receptor; exposure time 24 hours): +
destruction of androgen receptors (androgen receptor; in words): does not
IGFI-R detected by immunoblotting [5, 15]: +
IGFI-R detected by immunoblotting [5, 16]: +
IGFI-R detected by immunoblotting [5, 17]: +
IGFI-R detected by immunoblotting [5, 18]: +
effect on IGF1-R compared with geldanamycin alone ([5]; Example 5, in words): less injurious to IGF1-R than geldanamycin alone
ErbB2 detected by immunoblotting (ErbB2 [6]; exposure time 0 hours): +
ErbB2 detected by immunoblotting (ErbB2 [6]; exposure time 3 hours): +
ErbB2 detected by immunoblotting (ErbB2 [6]; exposure time 6 hours): +
ErbB2 detected by immunoblotting (ErbB2 [6]; exposure time 12 hours): −
ErbB2 detected by immunoblotting (ErbB2 [6]; exposure time 24 hours): −
Raf-1 detected by immunoblotting (Raf-1 [3]; [10]): +
Raf-1 detected by immunoblotting (Raf-1 [3]; [11]): +
Raf-1 detected by immunoblotting (Raf-1 [3]; [12]): +
Raf-1 detected by immunoblotting (Raf-1 [3]; [13]): +
Raf-1 detected by immunoblotting (Raf-1 [3]; [14]): +
Raf-1 detected by immunoblotting (Raf-1 [3]; [19]): +
Raf-1 detected by immunoblotting (Raf-1 [3]; [20]): +
Raf-1 detected by immunoblotting (Raf-1 [3]; [21]): +
Raf-1 detected by immunoblotting (Raf-1 [3]; [22]): +
ErbB2 detected by immunoblotting (ErbB2 [4]; [10]): +
ErbB2 detected by immunoblotting (ErbB2 [4]; [11]): ±
ErbB2 detected by immunoblotting (ErbB2 [4]; [12]): −
ErbB2 detected by immunoblotting (ErbB2 [4]; [13]): −
ErbB2 detected by immunoblotting (ErbB2 [4]; [14]): −
ErbB2 detected by immunoblotting (ErbB2 [4]; [19]): +
ErbB2 detected by immunoblotting (ErbB2 [4]; [20]): ±
ErbB2 detected by immunoblotting (ErbB2 [4]; [21]): −
ErbB2 detected by immunoblotting (ErbB2 [4]; [22]): −
relative activity, estrogen receptor (estrogen receptor [8]): ++++
selectivity for estrogen receptors and ErbB2 receptors compared to geldanamycin alone [9]: most pronounced
relative activity, raf-1 (Raf-1 [1]): −

Reference: US6670348B1, “Methods and compositions for destruction of selected proteins” (Sloan-Kettering Institute for Cancer Research, priority 1997, dated 2003)
